Data reported in US12479834B2, “Phenol compound or salt thereof” (TAIHO PHARMACEUTICAL CO., LTD., priority 2019, dated 2025).

Experiments:
KRAS G12C mutant = biological target: T1, KRAS G12C mutant (Homo sapiens, UniProt P01116, G12C); assay: Inhibition of SOS1-mediated nucleotide (GDP-GTP) exchange reaction of KRAS G12C mutant, BODIPY FL GDP fluorescence; type: biochemical; details: preincubated 25° C. 4 hours with 25 nM KRAS G12C bound with BODIPY FL GDP; SOS1 100 nM, GppNHp 1 μM, 30 minutes
T1 construct: 50 μM G12C K-Ras4B (1-169) protein and 1 mM BODIPY® FL GDP; His tag (N, cleaved yes); made in house; host or cells: E. coli BL21 (DE3)
Excerpt: (§1) SOS1 protein was expressed in E. coli strain BL21 (DE3) by synthesizing a nucleotide sequence encoding the amino acid sequence represented by GenPept ID NP_005624 as a sequence optimized for E. coli by use of GeneArt Technology (Life Technologies Corp.) such that the protein was N-terminally His-tagged and fused with a TEV protease recognition sequence (ENLYFQG). The expressed His-tagged SOS1 (564-1049) was purified through a Ni column, then cleaved at its tag with N-terminally His-tagged TEV protease, and passed through a Ni column again to recover a flow-through fraction to obtain the protein.
Each compound was studied for its inhibitory effect on the exchange reaction of GDP into GppNHp in BODIPY® FL bound with the KRAS G12C mutant by fluorescence measurement using the G12C K-Ras4B (1-169) protein and the SOS1 protein.
For the preparation of the KRAS G12C mutant bound with BODIPY® FL GDP, first, 50 μM G12C K-Ras4B (1-169) protein and 1 mM BODIPY® FL GDP (Invitrogen Corp., G22360) were incubated for 1 hour in a buffer solution (20 mM Tris-HCl (pH 7.5), 50 mM NaCl, and 1 mM DTT) in ice in the presence of 2.5 mM EDTA. Then, MgCl2 was added thereto at a final concentration of 10 mM, then the mixture was incubated at room temperature for 30 minutes, and then, the protein was passed through a NAP-5 column for removal of free nucleotides and used for compound evaluation.
For the measurement of the inhibitory activity of compounds against nucleotide exchange reaction, first, the compound of the present invention was serially diluted with DMSO. Subsequently, the serially diluted solution of the compound of the present invention in DMSO (final concentration of DMSO: 5%) and the KRAS G12C mutant (25 nM) bound with BODIPY® FL GDP were added into a reaction buffer solution (20 mM Tris-HCl (pH 7.5), 100 mM NaCl, 1 mM MgCl2, 2 mM DTT, and 0.1% Tween 20), and the mixture was preincubated at 25° C. for 4 hours. Then, Son of Sevenless Homolog 1 (SOS1, amino acid region: 564-1049) and GppNHp (GMPPNP, Jena Bioscience GmbH, NU-401-50) were added thereto at final concentrations of 100 nM and 1 μM, respectively, and the mixture was reacted for 30 minutes. The change in fluorescence intensity of BODIPY® FL (excitation wavelength: 485 nm, fluorescence wavelength: 520 nm) between immediately after the start of reaction and after 30 minutes from the start of reaction was standardized, and then, the compound concentration at which 50% inhibition was achieved was calculated as IC50 (nM) when the signal value for only DMSO was defined as 0% inhibition and the signal value for no addition of GppNHp was defined as 100% inhibition.

G12C K-Ras4B (1-169) = biological target: T2, G12C K-Ras4B (1-169) (Homo sapiens, UniProt P01116, G12C); assay: Binding to KRAS G12C mutant, compound binding rate by LC-MS; details: final compound concentration 2 μM, 1 μM protein, 2 hours at 25° C.
T2 construct: G12C K-Ras4B (1-169) protein, which was a KRAS G12C mutant; His tag (N, cleaved yes); made in house; host or cells: E. coli BL21 (DE3)
Excerpt: as §1, with “K-Ras4B (1-169)” for “SOS1”, “NP_004976” for “NP_005624”, “K-Ras4B (1-169)” for “SOS1 (564-1049)”, “fraction, which was further purified by anion-exchange chromatography” for “fraction”, “protein. G12C K-Ras4B (1-169) protein, which was a KRAS G12C mutant, was obtained in the same way as in the K-Ras4B(1-169) protein except that glycine at position 12 of the amino acid sequence represented by GenPept ID NP_004976 was mutated to cysteine.” for “protein.”
The K-Ras4B (1-169) protein and the G12C K-Ras4B (1-169) protein were mixed and diluted with a buffer solution (1×TBS and 0.1 mM TCEP) to prepare a protein solution containing 1 μM each of the proteins. Each test compound was dissolved at 10 mM in DMSO and further diluted 10-fold with DMSO to make a 1 mM solution. Then, the solution was diluted 5-fold with DMSO to make a 200 μM solution. The 200 μM solution was further diluted 5-fold to make a […] solution. 1 μL of the 40 μM test compound was added to 19 μL of the 1 μM protein solution such that the final compound concentration was 2 μM. The mixture was stored for 2 hours in an incubator of 25° C., and the reaction was terminated by the addition of 80 μL of a 1×TBS solution containing 0.2% formic acid, followed by LC-MS measurement.
The LC-MS measurement was performed by using Xevo G2-S Q-Tof manufactured by Waters Corp., performing reverse-phase chromatography with a desalting column, and obtaining mass spectra of positive ions by electrospray. For the mass spectra, spectra of polyvalent ions were collectively converted to molecular weights by the MaxEnt technique using OpenLynx software, and then, a compound binding rate was obtained from the ratio of […].
The binding rates of test compounds having a final compound concentration of 2 μM for G12C K-Ras4B (1-169) are shown in the table below. The binding rate for G12C K-Ras4B (1-169) is rated “A” for 80% or more, “B” for 60% or more and less than 80%, “C” for 40% or more and less than 60%, “D” for 20% or more and less than 40%, and “E” for less than 20%.

Compound	IC50 (KRAS G12C mutant)	binding rate for G12C K-Ras4B (1-169) (G12C K-Ras4B (1-169))
C=CC(=O)N1CC(NC(=O)c2cnc(CNc3nc([Si](C)(C)C)c(Cl)cc3O)n2C)C1 [Example 84, N-(1-Acryloylazetidin-3-yl)-2-(((5-chloro-3-hydroxy-6-(trimethylsilyl)pyridin-2-yl)amino)methyl)-1-methyl-1H-imidazole-5-carboxamide]	63 nM	A (80% or more)
C=CC(=O)N1CC(NC(=O)c2cnc(CNc3cc(CC)c(Cl)cc3O)n2C)C1 [Example 61, N-(1-Acryloylazetidin-3-yl)-2-(((4-chloro-5-ethyl-2-hydroxyphenyl)amino)methyl)-1-methyl-1H-imidazole-5-carboxamide]	144 nM	B (60% or more and less than 80%)
C=CC(=O)N1CC(NC(=O)c2cnc(CNc3cc(C(C)(C)C)c(Cl)cc3O)o2)C1 [Example 11, N-(1-Acryloylazetidin-3-yl)-2-(((5-(tert-butyl)-4-chloro-2-hydroxyphenyl)amino)methyl)oxazole-5-carboxamide]	123 nM	B (60% or more and less than 80%)
C=CC(=O)N1CC(NC(=O)c2cn(C)c(CNc3cc(C(C)(C)C)c(Cl)cc3O)n2)C1 [Example 25, N-(1-Acryloylazetidin-3-yl)-2-(((5-(tert-butyl)-4-chloro-2-hydroxyphenyl)amino)methyl)-1-methyl-1H-imidazole-4-carboxamide]	4680 nM	E (less than 20%)
CN(C)C/C=C/C(=O)N1CC(NC(=O)c2cnc(CNc3cc(C(C)(C)C)c(Cl)cc3O)n2C)C1 [Example 89, (E)-2-(((5-(tert-Butyl)-4-chloro-2-hydroxyphenyl)amino)methyl)-N-(1-(4-(dimethylamino)but-2-enoyl)azetidin-3-yl)-1-methyl-1H-imidazole-5-carboxamide]	61 nM	A (80% or more)
C=CC(=O)N1CC(NC(=O)c2cnc(CNc3cc(C4CC4(F)F)c(Cl)cc3O)n2C)C1 (centres unmarked) [Example 55, N-(1-Acryloylazetidin-3-yl)-2-(((4-chloro-5-(2,2-difluorocyclopropyl)-2-hydroxyphenyl)amino)methyl)-1-methyl-1H-imidazole-5-carboxamide]	122 nM	C (40% or more and less than 60%)
C=CC(=O)N1CC(N(C)C(=O)c2ccc(CNc3cc(OC(F)(F)F)c(Cl)cc3O)o2)C1 [Example 49, N-(1-Acryloylazetidin-3-yl)-5-(((4-chloro-2-hydroxy-5-(trifluoromethoxy)phenyl)amino)methyl)-N-methylfuran-2-carboxamide]	1140 nM	E (less than 20%)
C=CC(=O)N1CC(NC(=O)c2ccc(CNc3cc(C(C)(C)C)c(Cl)cc3OC)o2)C1 [Reference Example1, N-(1-Acryloylazetidin-3-yl)-5-(((5-(tert-butyl)-4-chloro-2-methoxyphenyl)amino)methyl)furan-2-carboxamide, reference compound]	> 10000 nM	E (less than 20%)
C=CC(=O)N1CC(NC(=O)c2c(C)nc(C(C)Nc3cc(C(C)(C)C)c(Cl)cc3O)n2C)C1 (centres unmarked) [Example 81, N-(1-Acryloylazetidin-3-yl)-2-(1-((5-(tert-butyl)-4-chloro-2-hydroxyphenyl)amino)ethyl)-1,4-dimethyl-1H-imidazole-5-carboxamide]	225 nM	B (60% or more and less than 80%)
C=CC(=O)N1CC(NC(=O)c2ccc(CNc3cc(C(C)(C)C)c(Cl)cc3O)cc2Cl)C1 [Example 22, N-(1-Acryloylazetidin-3-yl)-4-(((5-(tert-butyl)-4-chloro-2-hydroxyphenyl)amino)methyl)-2-chlorobenzamide]	2380 nM	D (20% or more and less than 40%)
C=CC(=O)N1CC(NC(=O)c2nc(CNc3cc(C(C)(C)C)c(Cl)cc3O)cs2)C1 [Example 10, N-(1-Acryloylazetidin-3-yl)-4-(((5-(tert-butyl)-4-chloro-2-hydroxyphenyl)amino)methyl)thiazole-2-carboxamide]	67 nM	A (80% or more)
C=CC(=O)N1CC(NC(=O)c2cnc(CNc3cc(C(C)(C)C)c(CC)cc3O)n2C)C1 [Example 70, N-(1-Acryloylazetidin-3-yl)-2-(((5-(tert-butyl)-4-ethyl-2-hydroxyphenyl)amino)methyl)-1-methyl-1H-imidazole-5-carboxamide]	84 nM	B (60% or more and less than 80%)
C=CC(=O)N1CC(NC(=O)c2cnc(CNc3cc(C(C)(C)C)c(Cl)cc3O)n2CC)C1 [Example 36, N-(1-Acryloylazetidin-3-yl)-2-(((5-(tert-butyl)-4-chloro-2-hydroxyphenyl)amino)methyl)-1-ethyl-1H-imidazole-5-carboxamide]	15 nM	A (80% or more)
C=CC(=O)N1CC(NC(=O)c2ccc(CNc3cc(C(C)(C)C)c(Br)cc3O)o2)C1 [Example 65, N-(1-Acryloylazetidin-3-yl)-5-(((4-bromo-5-(tert-butyl)-2-hydroxyphenyl)amino)methyl)furan-2-carboxamide]	353 nM	A (80% or more)
C=CC(=O)N1CC(NC(=O)c2ccnc(CNc3cc(C(C)(C)C)c(Cl)cc3O)c2)C1 [Example 15, N-(1-Acryloylazetidin-3-yl)-2-(((5-(tert-butyl)-4-chloro-2-hydroxyphenyl)amino)methyl)isonicotinamide]	825 nM	D (20% or more and less than 40%)
C=CC(=O)N1CC(NC(=O)c2cnc(CNc3cc(C(=C)C(F)(F)F)c(Cl)cc3O)n2C)C1 [Example 57, N-(1-Acryloylazetidin-3-yl)-2-(((4-chloro-2-hydroxy-5-(3,3,3-trifluoroprop-1-en-2-yl)phenyl)amino)methyl)-1-methyl-1H-imidazole-5-carboxamide]	522 nM	D (20% or more and less than 40%)
